Measured values taken from patent publication EP4725966A1, “HUMAN EPIDERMAL GROWTH FACTOR 3 ANTIBODY, PREPARATION METHOD THEREFOR, AND USE THEREOF” (priority 2023, dated 2024).

How the values were obtained:
[1] = test system: HER3-overexpressing A375 cells; test: Cell imaging of internalization; format: cell-based; conditions: 100 nM, FIG. 11
Description: A cell imaging microplate detection system was used to monitor the internalization of hHE4-G1W, hHE4-G1W-DXd, patritumab, and patritumab-DXd after binding to HER3 on the surface of A375 tumor cells. hHE4-G1W, hHE4-G1W-DXd, patritumab, and patritumab-DXd (each 100 nM) were incubated with HER3-overexpressing A375 cells at 4°C for 30 minutes, respectively. Unbound antibodies were removed by washing, and PE-labeled goat anti-human Fc secondary antibody (Jackson) was added. The mixture was incubated at 4°C for 30 minutes, and then the unbound secondary antibody was removed by washing. When the antibodies were bound to the surface of A375 cells and had not yet undergone internalization, these samples were designated as the 0h samples. Fluorescence images were acquired using a Biotek Cytation 1 imaging reader. Cells were then incubated at 37°C for 3 hours and imaged again.

[2] = test system: human HER3-overexpressing JIMT-1 cells; test: ADC cytotoxicity; format: cell-based; conditions: FIG. 13
Description: (§1) A375 and OVCAR3 cells were seeded in 96-well plates at 5,000 cells per well, and gradient-diluted ADCs (cHE4-G1W-DXd, cHE5-G1W-DXd, cHE7-G1W-DXd, patritumab-DXd, and IgG-DXd) were added. After incubation at 37°C for 5 days, cell viability was measured using CellTiter-Glo (Promega) to evaluate cytotoxicity of the ADCs.
(§2) The cytotoxicity of antibody-drug conjugates based on hHE4-G1W against HER3-expressing HCC1569, A375, and JIMT-1 tumor cells was tested. Antibody-drug conjugates were prepared as described in Example 11. Hydrophobic interaction chromatography indicated the antibody-to-Dxd ratios for cHE4-G1W-DXd, hHE4-G1W-DXd, patritumab-DXd, and negative control IgG-DXd were 1:7, 1:8, 1:7.8, and 1:8, respectively.

[3] = test system: HER3-expressing HCC1569 cells; test: ADC cytotoxicity; format: cell-based; conditions: FIG. 13
Description: as §1, §2

[4] = test system: A375 cells overexpressing human HER3; test: ADC cytotoxicity, CellTiter-Glo; format: cell-based; conditions: Example 21, FIG. 13
[5] = test system: SW620 tumor; test: Tumor inhibition in SW620 tumor-bearing mice; format: in vivo, Female SCID mice; conditions: 3 mg/kg, single dose, FIG. 14
Description: The anti-tumor efficacy of hHE4-G1W-DXd and cHE5-G1W-DXd was evaluated in SW620 tumor-bearing mice. Female SCID mice were subcutaneously injected with SW620 cells in the dorsal region to establish the xenograft model. After tumor establishment, mice were randomly divided into nine groups and treated with a single dose. Three groups served as negative controls: one group received PBS, and two groups received IgG-DXd at low dose (3 mg/kg) and high dose (6 mg/kg), respectively. Experimental groups were administered with hHE4-G1W-DXd, cHE5-G1W-DXd, or patritumab-DXd at 3 mg/kg or 6 mg/kg. The average Dxd-to-antibody ratio was 8. Mouse body weights and tumor volumes were measured.

Substance: patritumab-DXd [reference compound]
- binding to HER3 on the surface of A375 cells ([1]; 0 hour): bound to HER3 expressed on the cell surface
- internalization into A375 cells ([1]; after 3 hours at 37°C): internalized into the A375 cells
- cytotoxicity against JIMT-1 cells [2]: significant cytotoxicity
- cytotoxicity against HCC1569 cells [3]: significant cytotoxicity
- cytotoxicity against A375 cells [4]: significant cytotoxicity
- tumor growth [5]: significant tumor growth at day 14 postadministration
